Experimental data as given in article PMC7561186, “Rational design of balanced dual-targeting antibiotics with limited resistance” (PLoS Biology, 2020).
Read-outs that look alike come from different tables or passages of the source.

Tested on: S. aureus clinical isolates
Test: microbe, parasite or virus in culture
Type: cell-based

Measured: MIC

CC(=O)NC[C@H]1CN(c2ccc(N3CCOCC3)c(F)c2)C(=O)O1 [Linezolid]
1 µg/mL: Staphylococcus aureus, MRSA / NRS 3 / VISA, S. aureus IHMA 1308243, NRS3, MRSA / VISA, read-out: MIC | Staphylococcus aureus, MRSA / NRS 4 / VISA, S. aureus IHMA 649380, NRS4, MRSA / VISA, read-out: MIC | Staphylococcus aureus, MRSA / NRS 21 / VISA, S. aureus IHMA 649388, NRS21, MRSA / VISA, read-out: MIC | Staphylococcus aureus, MRSA / NRS 22 / USA600 / VISA, S. aureus IHMA 649389, NRS22, MRSA / VISA, USA600, read-out: MIC | Staphylococcus aureus, MRSA / NRS 24 / VISA, S. aureus IHMA 649391, NRS24, MRSA / VISA, read-out: MIC | Staphylococcus aureus, MRSA / NRS 26, S. aureus IHMA 649392, NRS26, MRSA / VSSA, read-out: MIC | Staphylococcus aureus, MRSA / NRS 29 / VISA, S. aureus IHMA 1308250, NRS29, MRSA / VISA, read-out: MIC | Staphylococcus aureus, MRSA / NRS 37 / VISA, S. aureus IHMA 1308251, NRS37, MRSA / VISA, read-out: MIC | Staphylococcus aureus, MRSA / NRS 54, S. aureus IHMA 1308253, NRS54, MRSA / VSSA* (*Expected VAN intermediate, confirmed VAN susceptible twice), test date 2018-11-07, read-out: MIC | Staphylococcus aureus, MRSA / NRS 56 / VISA, S. aureus IHMA 1308254, NRS56, MRSA / VISA, read-out: MIC | Staphylococcus aureus, MRSA / USA100 / VRSA, S. aureus IHMA 672230, VRS1, MRSA / VRSA, USA100, read-out: MIC | Staphylococcus aureus, MRSA / USA100 / VRSA, S. aureus IHMA 672231, VRS2, MRSA / VRSA, USA100, read-out: MIC | Staphylococcus aureus, MRSA / USA100 / VRSA, S. aureus IHMA 672238, VRS8, MRSA / VRSA, USA100, read-out: MIC | Staphylococcus aureus, MRSA / USA100 / VRSA, S. aureus IHMA 672239, VRS9, MRSA / VRSA, USA100, read-out: MIC | Staphylococcus aureus, MRSA / USA100 / VRSA, S. aureus IHMA 1308258, VRS11b, MRSA / VRSA, USA100, read-out: MIC | Staphylococcus aureus, MRSA / USA800 / VRSA, S. aureus IHMA 672233, VRS3b, MRSA / VRSA, USA800, read-out: MIC | Staphylococcus aureus, MRSA, S. aureus IHMA 1583795, MRSA / VSSA, read-out: MIC | Staphylococcus aureus, MRSA, S. aureus IHMA 1586780, MRSA / VSSA, read-out: MIC | Staphylococcus aureus, MRSA, S. aureus IHMA 1588127, MRSA / VSSA, read-out: MIC | Staphylococcus aureus, MRSA, S. aureus IHMA 1597106, MRSA / VSSA, read-out: MIC | Staphylococcus aureus, MRSA, S. aureus IHMA 1620441, MRSA / VSSA, read-out: MIC
4 µg/mL: S. aureus ATCC 29213, MSSA / VSSA, test date 2018-10-25 (three repeat lines) | Staphylococcus aureus, MRSA / USA100 / VRSA, S. aureus IHMA 1308256, VRS10, MRSA / VRSA, USA100, read-out: MIC | Staphylococcus aureus, MRSA, S. aureus IHMA 1569509, MRSA / VSSA, read-out: MIC | Staphylococcus aureus, MRSA, S. aureus IHMA 1575629, MRSA / VSSA, read-out: MIC | Staphylococcus aureus, MRSA, S. aureus IHMA 1584223, MRSA / VSSA, read-out: MIC | Staphylococcus aureus, MRSA, S. aureus IHMA 1591462, MRSA / VSSA, read-out: MIC | Staphylococcus aureus, MRSA, S. aureus IHMA 1602095, MRSA / VSSA, read-out: MIC | Staphylococcus aureus, MRSA, S. aureus IHMA 1611612, MRSA / VSSA, read-out: MIC
2 µg/mL: Staphylococcus aureus, ATCC 29213 / MSSA, S. aureus ATCC 29213, MSSA / VSSA, test date 2018-10-25 (three repeat lines), read-out: MIC | Staphylococcus aureus, ATCC 29213 / MSSA, S. aureus ATCC 29213, MSSA / VSSA, test date 2018-11-07, read-out: MIC | Staphylococcus aureus, MRSA / NRS 18 / VISA, S. aureus IHMA 649386, NRS18, MRSA / VISA, read-out: MIC | Staphylococcus aureus, MRSA / NRS 23 / VISA, S. aureus IHMA 649390, NRS23, MRSA / VISA, read-out: MIC | Staphylococcus aureus, MRSA / NRS 27 / VISA, S. aureus IHMA 1308248, NRS27, MRSA / VISA, read-out: MIC | Staphylococcus aureus, MRSA / USA100 / VRSA, S. aureus IHMA 672234, VRS4, MRSA / VRSA, USA100, read-out: MIC | Staphylococcus aureus, MRSA / USA100 / VRSA, S. aureus IHMA 672235, VRS5, MRSA / VRSA, USA100, read-out: MIC | Staphylococcus aureus, MRSA / USA100 / VRSA, S. aureus IHMA 672237, VRS7, MRSA / VRSA, USA100, read-out: MIC | Staphylococcus aureus, MRSA, S. aureus IHMA 1575268, MRSA / VSSA, read-out: MIC | Staphylococcus aureus, MRSA, S. aureus IHMA 1577820, MRSA / VSSA, read-out: MIC | Staphylococcus aureus, MRSA, S. aureus IHMA 1580940, MRSA / VSSA, read-out: MIC | Staphylococcus aureus, MRSA, S. aureus IHMA 1582100, MRSA / VSSA, read-out: MIC | Staphylococcus aureus, MRSA, S. aureus IHMA 1585316, MRSA / VSSA, read-out: MIC | Staphylococcus aureus, MRSA, S. aureus IHMA 1587322, MRSA / VSSA, read-out: MIC | Staphylococcus aureus, MRSA, S. aureus IHMA 1592755, MRSA / VSSA, read-out: MIC | Staphylococcus aureus, MRSA, S. aureus IHMA 1592776, MRSA / VSSA, read-out: MIC | Staphylococcus aureus, MRSA, S. aureus IHMA 1611170, MRSA / VSSA, read-out: MIC | Staphylococcus aureus, MRSA, S. aureus IHMA 1612228, MRSA / VSSA, read-out: MIC
0.5 µg/mL: Staphylococcus aureus, MRSA / NRS 19 / VISA, S. aureus IHMA 649387, NRS19, MRSA / VISA, read-out: MIC | Staphylococcus aureus, MRSA, S. aureus IHMA 1580300, MRSA / VSSA, read-out: MIC
